Assay results: patent publication US20130005747A1, “METHOD FOR SELECTING A CANCER THERAPY” (Cyclacel Limited, priority 2010, published 2013)

Columns and labels:
CaR-1 = assay: Fractional growth, 72 h seliciclib; type: cell-based, human; settings: CaR-1 (Intestine), 15 μM seliciclib
Text: (§1) A total of 270 human cancer cell lines from diverse cancer histopathologic types were investigated.

GCT = assay: Fractional growth, 72 h seliciclib; type: cell-based, human; settings: GCT (Miscellaneous), 15 μM seliciclib
Text: as §1

HO-1-u-1 = assay: Fractional growth, 72 h seliciclib; type: cell-based, human; settings: HO-1-u-1 (Head & Neck), 15 μM seliciclib
Text: as §1

HeLa = assay: Fractional growth, 72 h seliciclib; type: cell-based, human; settings: HeLa (Cervix), 15 μM seliciclib
Text: as §1

SU.86.86 = assay: Fractional growth, 72 h seliciclib; type: cell-based, human; settings: SU.86.86 (Pancreas), 15 μM seliciclib
Text: as §1

Sarc9371 = assay: Fractional growth, 72 h seliciclib; type: cell-based, human; settings: Sarc9371 (Bone), 15 μM seliciclib
Text: as §1

[1] = tested on: H-23 human lung cancer cell line; assay: Growth inhibition of lung cancer cells (FIG. 6); type: cell-based; settings: for growth inhibition / sensitivity (in words): 72 hours post-treatments
Text: (§2) Thus, findings from this large panel of cancer cell lines indicated significant roscovitine sensitivity well beyond those human and murine lung cancer cells already investigated. For lung cancer cells, this response is tightly associated with the presence of ras activation in highly responsive cells.

[2] = tested on: H-522 human lung cancer cell line; assay: Growth inhibition of lung cancer cells (FIG. 6); type: cell-based; settings: for growth inhibition / sensitivity (in words): 72 hours post-treatments, wild-type ras
Text: as §2

[3] = tested on: HOP-62 human lung cancer cell line; assay: Growth inhibition of lung cancer cells (FIG. 6); type: cell-based; settings: for growth inhibition / sensitivity (in words): 72 hours post-treatments
Text: as §2

[4] = tested on: C-10 murine immortalized pulmonary epithelial cells; assay: Growth inhibition of immortalized pulmonary epithelial cells (FIG. 6B); type: cell-based
[5] = seliciclib combined with docetaxel
[6] = seliciclib combined with paclitaxel

SMILES: CC[C@H](CO)Nc1nc(NCc2ccccc2)c2ncn(C(C)C)c2n1 [seliciclib, roscovitine]
- Fractional Growth (CaR-1): 0.5795
- Fractional Growth (GCT): 0.4799
- Fractional Growth (HO-1-u-1): 0.4858
- Fractional Growth (HeLa): 0.9192
- Fractional Growth (SU.86.86): 0.3887
- Fractional Growth (Sarc9371): 0.6425
- growth inhibition / sensitivity (in words) ([1]; listed as Seliciclib): dose-dependent growth inhibition
- growth inhibition / sensitivity (in words) ([1]; listed as roscovitine): more sensitive to roscovitine that H-522 lung cancer cells
- proliferation, combined treatment (in words) [1, 5]: cooperatively inhibited proliferation
- proliferation, combined treatment (in words) [1, 6]: cooperatively inhibited proliferation
- growth inhibition / sensitivity (in words) ([2]; listed as Seliciclib): dose-dependent growth inhibition
- growth inhibition / sensitivity (in words) ([2]; listed as roscovitine): less sensitive than others examined
- proliferation, combined treatment (in words) [2, 5]: cooperatively inhibited proliferation
- proliferation, combined treatment (in words) [2, 6]: cooperatively inhibited proliferation
- growth inhibition / sensitivity (in words) ([3]; listed as Seliciclib): dose-dependent growth inhibition
- growth inhibition / sensitivity (in words) ([3]; listed as roscovitine): more sensitive to roscovitine that H-522 lung cancer cells
- proliferation, combined treatment (in words) [3, 5]: cooperatively inhibited proliferation
- proliferation, combined treatment (in words) [3, 6]: cooperatively inhibited proliferation
- growth inhibition (in words) [4]: Dose-dependent growth inhibition
